Experimental data published in US20100041642A1, “UREA INHIBITORS OF MAP KINASES” (LOCUS PHARMACEUTICALS, INC., priority 2008, published 2010).

Biological target: p38 (Homo sapiens, UniProt Q16539)
Experiment: Protein Kinase Assay (33P incorporation from γ-[33P]ATP into GST-ATF-2)
Type: biochemical
Details: 2 nM p38, preincubated 20 min at 30° C.; 10 uM cold ATP, 2 uM GST-ATF2, 70 min; read-out: ACT. (Activity), IC50 category in Protein Kinase Assay
Experimental: Protein Kinase Assay. The protein kinase activity of p38 was determined by measuring the incorporation of ^33P from γ-[^33P]ATP into the GST-ATF-2 substrate, amino acids 19-96 (Upstate, N.Y. USA). The reactions were carried out in a final volume of 50 μL of 24 mM Tris-HCl buffer, pH 7.5, containing 13 mM MgCl2, 12% Glycerol, 2% DMSO, 2 mM DTT, […] of γ-[^33P]ATP (1000 Ci/mmol; 1 Ci=37 GBq) (GE Healthcare, Piscataway, N.J.), 10 uM cold ATP (GE Healthcare, Piscataway, N.J.), and 2 uM GST-ATF2. Compounds were preincubated with 2 nM p38 for 20 min at 30° C.; the reactions were initiated by the addition of GST-ATF2 and ATP and incubated for 70 min at 30° C. before being stopped by the addition of 10 μL of 600 mM phosphoric acid. The phosphorylated substrate was captured on phosphocellulose 96-well plate (Millipore MAPHNOB 10), washed with 100 mM phosphoric acid, and counted in a BeckmenCoulter LS6500 liquid scintillation counter. […] (Activity).

Chain of p38 (Q16539 whole entry): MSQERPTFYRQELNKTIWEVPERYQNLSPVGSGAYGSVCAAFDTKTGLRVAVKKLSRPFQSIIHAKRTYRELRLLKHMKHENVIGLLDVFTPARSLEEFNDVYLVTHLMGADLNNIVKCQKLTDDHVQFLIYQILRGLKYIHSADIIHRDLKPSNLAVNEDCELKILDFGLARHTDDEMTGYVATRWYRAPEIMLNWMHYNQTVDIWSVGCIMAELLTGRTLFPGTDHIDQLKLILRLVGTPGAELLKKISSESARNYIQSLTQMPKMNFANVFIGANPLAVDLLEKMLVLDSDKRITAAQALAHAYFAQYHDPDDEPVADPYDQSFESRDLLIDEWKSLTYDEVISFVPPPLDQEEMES

Row | SMILES | IC50 [nM]
1 | Cc1nnc(-c2ccc(-c3cc(NC(=O)Nc4cc(C(C)(C)C)sc4C(=O)N4CCN(C)C(=O)C4(C)C)ccc3C)cn2)o1 | < 100
2 | CCOc1ccc(-c2cc(NC(=O)Nc3cn(C(C)(C)C)nc3C(=O)N3CCN(C)C(=O)C3(C)C)ccc2C)cn1 [1-(1-tert-butyl-3-(2,2,4-trimethyl-3-oxopiperazine-1-carbonyl)-1H-pyrazol-4-yl)-3-(3-(6-ethoxypyridin-3-yl)-4-methylphenyl)urea] | < 100
3 | CCc1ccc(-c2cc(NC(=O)Nc3cn(C(C)(C)C)nc3C(=O)N3CCN(C)C(=O)C3(C)C)ccc2C)cn1 [1-(1-tert-butyl-3-(2,2,4-trimethyl-3-oxopiperazine-1-carbonyl)-1H-pyrazol-4-yl)-3-(3-(6-ethylpyridin-3-yl)-4-methylphenyl)urea] | < 100
4 | Cc1ccc(NC(=O)Nc2cn(C(C)(C)C)nc2C(=O)N2CCN(C)C(=O)C2(C)C)cc1-c1ccc(N2CCOCC2)cn1 [1-(1-tert-butyl-3-(2,2,4-trimethyl-3-oxopiperazine-1-carbonyl)-1H-pyrazol-4-yl)-3-(4-methyl-3-(5-morpholinopyridin-2-yl)phenyl)urea] | < 100
5 | Cc1ccc(NC(=O)Nc2cn(C(C)(C)C)nc2C(=O)N2CCNC(=O)C2(C)C)cc1-c1ccc(CN2CCOCC2)cn1 [1-(1-tert-butyl-3-(2,2-dimethyl-3-oxopiperazine-1-carbonyl)-1H-pyrazol-4-yl)-3-(4-methyl-3-(5-(morpholinomethyl)pyridin-2-yl)phenyl)urea] | < 100
6 | Cc1ccc(NC(=O)Nc2cn(C(C)(C)C)nc2C(=O)N2CCNC(=O)C2(C)C)cc1-c1ccc(CN2CCOCC2)nc1 [1-(1-tert-butyl-3-(2,2-dimethyl-3-oxopiperazine-1-carbonyl)-1H-pyrazol-4-yl)-3-(4-methyl-3-(6-(morpholinomethyl)pyridin-3-yl)phenyl)urea] | < 100
7 | Cc1ccc(NC(=O)Nc2cn(C(C)(C)C)nc2C(=O)N2CCNC(=O)C2(C)C)cc1-c1ccc(N2CCOCC2)nc1 [1-(1-tert-butyl-3-(2,2-dimethyl-3-oxopiperazine-1-carbonyl)-1H-pyrazol-4-yl)-3-(4-methyl-3-(6-morpholinopyridin-3-yl)phenyl)urea] | < 100
8 | Cc1ccc(NC(=O)Nc2sc(C(C)(C)C)nc2C(=O)N2CCN(C)C(=O)C2(C)C)cc1-c1ccc(CN2CCOCC2)cn1 [1-(2-tert-butyl-4-(2,2,4-trimethyl-3-oxopiperazine-1-carbonyl)thiazol-5-yl)-3-(4-methyl-3-(5-(morpholinomethyl)pyridin-2-yl)phenyl)urea] | < 100
9 | Cc1nnc(-c2ccc(-c3cc(NC(=O)Nc4sc(C(C)(C)C)nc4C(=O)N4CCN(C)C(=O)C4(C)C)ccc3C)cn2)o1 [1-(2-tert-butyl-4-(2,2,4-trimethyl-3-oxopiperazine-1-carbonyl)thiazol-5-yl)-3-(4-methyl-3-(6-(5-methyl-1,3,4-oxadiazol-2-yl)pyridin-3-yl)phenyl)urea] | < 100
10 | Cc1ccc(NC(=O)Nc2sc(C(C)(C)C)nc2C(=O)N2CCN(C)C(=O)C2(C)C)cc1-c1ccc(CN2CCOCC2)nc1 [1-(2-tert-butyl-4-(2,2,4-trimethyl-3-oxopiperazine-1-carbonyl)thiazol-5-yl)-3-(4-methyl-3-(6-(morpholinomethyl)pyridin-3-yl)phenyl)urea] | < 100
11 | CCc1ccc(-c2cc(NC(=O)Nc3cn(C4(C)CCCC4)nc3C(=O)N3CCNC(=O)C3(C)C)ccc2C)cn1 [1-(3-(2,2-dimethyl-3-oxopiperazine-1-carbonyl)-1-(1-methylcyclopentyl)-1H-pyrazol-4-yl)-3-(3-(6-ethylpyridin-3-yl)-4-methylphenyl)urea] | < 100
12 | Cc1ccc(NC(=O)Nc2sc(C(C)(C)C)cc2C(=O)N2CCN(C)C(=O)C2(C)C)cc1-c1ccc(-n2ccnc2)nc1 [1-(3-(6-(1H-imidazol-1-yl)pyridin-3-yl)-4-methylphenyl)-3-(5-tert-butyl-3-(2,2,4-trimethyl-3-oxopiperazine-1-carbonyl)thiophen-2-yl)urea] | < 100
13 | Cc1ccc(NC(=O)Nc2sc(C(C)(C)C)cc2C(=O)N2CCN(C)C(=O)C2(C)C)cc1-c1ccc(-n2cccn2)nc1 [1-(3-(6-(1H-pyrazol-1-yl)pyridin-3-yl)-4-methylphenyl)-3-(5-tert-butyl-3-(2,2,4-trimethyl-3-oxopiperazine-1-carbonyl)thiophen-2-yl)urea] | < 100

The remaining lines, values ahead:

Row | IC50 [nM] | SMILES
14 | < 100 | CCNC(=O)c1ccc(-c2cc(NC(=O)Nc3cc(C(C)(C)C)sc3C(=O)N3CCNC(=O)C3(C)C)ccc2C)cn1
15 | < 100 | Cc1ccc(NC(=O)Nc2sc(C(C)(C)C)cc2C(=O)N2CCNS(=O)(=O)CC2)cc1-c1ccc(CN2CCOCC2)nc1
16 | < 100 | CCc1ccc(-c2cc(NC(=O)Nc3cn(C(C)(C)C)nc3C(=O)N3CCN(C)C(=O)C3(C)C)cc(F)c2C)cn1 [1-(1-tert-butyl-3-(2,2,4-trimethyl-3-oxopiperazine-1-carbonyl)-1H-pyrazol-4-yl)-3-(3-(6-ethylpyridin-3-yl)-5-fluoro-4-methylphenyl)urea]
17 | < 100 | Cc1ccc(NC(=O)Nc2cn(C(C)(C)C)nc2C(=O)N2CCN(C)C(=O)C2(C)C)cc1-c1ccc(C(C)C)nc1 [1-(1-tert-butyl-3-(2,2,4-trimethyl-3-oxopiperazine-1-carbonyl)-1H-pyrazol-4-yl)-3-(3-(6-isopropylpyridin-3-yl)-4-methylphenyl)urea]
18 | < 100 | Cc1ccc(NC(=O)Nc2cn(C(C)(C)C)nc2C(=O)N2CCN(C)C(=O)C2(C)C)cc1-c1ccc(CN2CCOCC2)cn1 [1-(1-tert-butyl-3-(2,2,4-trimethyl-3-oxopiperazine-1-carbonyl)-1H-pyrazol-4-yl)-3-(4-methyl-3-(5-(morpholinomethyl)pyridin-2-yl)phenyl)urea]
19 | < 100 | Cc1ccc(NC(=O)Nc2cn(C(C)(C)C)nc2C(=O)N2CCN(C)C(=O)C2(C)C)cc1-c1ccc(CN2CCOCC2)nc1 [1-(1-tert-butyl-3-(2,2,4-trimethyl-3-oxopiperazine-1-carbonyl)-1H-pyrazol-4-yl)-3-(4-methyl-3-(6-(morpholinomethyl)pyridin-3-yl)phenyl)urea]
20 | < 100 | CCc1ccc(-c2cc(NC(=O)Nc3cn(C(C)(C)C)nc3C(=O)N3CCNC(=O)C3(C)C)ccc2C)cn1 [1-(1-tert-butyl-3-(2,2-dimethyl-3-oxopiperazine-1-carbonyl)-1H-pyrazol-4-yl)-3-(3-(6-ethylpyridin-3-yl)-4-methylphenyl)urea]
21 | < 100 | Cc1ccc(NC(=O)Nc2cn(C(C)(C)C)nc2C(=O)N2CCNC(=O)C2(C)C)cc1-c1ccc(C(C)C)nc1 [1-(1-tert-butyl-3-(2,2-dimethyl-3-oxopiperazine-1-carbonyl)-1H-pyrazol-4-yl)-3-(3-(6-isopropylpyridin-3-yl)-4-methylphenyl)urea]
22 | < 100 | Cc1ccc(NC(=O)Nc2cn(C(C)(C)C)nc2C(=O)N2CCNC(=O)C2(C)C)cc1-c1cccnc1 [1-(1-tert-butyl-3-(2,2-dimethyl-3-oxopiperazine-1-carbonyl)-1H-pyrazol-4-yl)-3-(4-methyl-3-(pyridin-3-yl)phenyl)urea]
23 | < 1000 | Cc1ccc(NC(=O)Nc2cn(C(C)(C)C)nc2C(=O)N2CCN(C3CCN(C)C3)C(=O)C2(C)C)cc1-c1cccnc1 (centres unmarked) [1-(1-tert-butyl-3-(2,2-dimethyl-4-(1-methylpyrrolidin-3-yl)-3-oxopiperazine-1-carbonyl)-1H-pyrazol-4-yl)-3-(4-methyl-3-(pyridin-3-yl)phenyl)urea]
